Read-outs that look alike come from different tables or passages of the source.
Columns and labels:
[1] = Pharmacokinetic evaluation in rats; assay type: in vivo, Male SD rats; conditions: rat; for AUC(0-inf) / half-life / bioavailability / Cmax: male, SD, plasma; for AUC(0-inf): read-out: Area under curve AUC0-inf; for half-life: read-out: Half-life t½ (converted); for bioavailability / Bioavailability F: Oral 10 mg/kg vs I.V. 5 mg/kg; for bioavailability: read-out: Bioavailability F; for Cmax: read-out: Blood Drug Level Cmax
Procedure: Pharmacokinetic Evaluation
Male SD rats (purchased from Vital River Laboratory Animal Technology Co., Ltd.), each weighing 180 to 240 g, were fasted overnight but allowed access to water. Three rats were administered by oral gavage at a dose of 10 mg/kg, and three rats were intravenously injected at 5 mg/kg. For the oral administration group, the compounds were formulated into 1.0 mg/mL suspensions with a 0.5% methylcellulose (MC) solution, and 200 μl blood was sampled before administration and 30 min, 1 h, 2 h, 4 h, 6 h, 8 h, 12 h and 24 h after administration. For the intravenous injection (I.V.) group, the compounds were formulated into 1.0 mg/ml solutions with physiological saline, and blood was sampled before administration and 5 min, 15 min, 30 min, 1 h, 2 h, 4 h, 8 h, 12 h and 24 h after administration. The blood samples were all anticoagulated with heparin, and centrifuged at 5500 rpm for 10 min to collect plasma, which was stored at −20° C. 10 μl plasma of rats for each of the time points was mixed with a 500 μl acetonitrile solution containing an internal standard, vortexed for 10 min, and centrifuged at 3700 rpm for 18 min. 50 μl of the supernatant was mixed with 100 μl water and vortexed for 10 min. 5 μl of the mixture was subjected to an LC-MS/MS analysis to determine the blood drug level of the parent drugs. The main pharmacokinetic parameters were analyzed using the software WinNonlin 6.3 at the non-compartment mode.

[2] = tested on: pain in diabetic peripheral neuropathy; conditions: patients with diabetic peripheral neuropathy; cited from earlier work

SMILES	AUC(0-inf) ([1]; iv, 5 mg/kg, I.V., 5 mg/kg) [ng·h/mL]	half-life ([1]; iv, 5 mg/kg, I.V., 5 mg/kg) [h]	bioavailability ([1]; po, 10 mg/kg) [%]	AUC(0-inf) ([1]; po, 10 mg/kg, Oral, 10 mg/kg) [ng·h/mL]	Cmax ([1]; po, 10 mg/kg, Oral, 10 mg/kg) [ng/mL]	half-life ([1]; po, 10 mg/kg, Oral, 10 mg/kg) [h]	Area under curve AUC0-inf ([1]; I.V., 5 mg/kg) [ng·h/mL]	Half-life t½ ([1]; I.V., 5 mg/kg) [h]	Bioavailability F [1] [%]	Area under curve AUC0-inf ([1]; Oral, 10 mg/kg) [ng·h/mL]	Blood Drug Level Cmax ([1]; Oral, 10 mg/kg) [ng/mL]	Half-life t½ ([1]; Oral, 10 mg/kg) [h]	proportion of patients whose pain is relieved to a great extent [2]
NC[C@@]1(CC(=O)O)[C@@H]2C[C@@H]3CC[C@H]1[C@H]2C3 (racemic) [Example 1, (±)-2-((1R,2R,3S,6R,8R)-2-(aminomethyl)tricyclo[4.2.1.0^3,8]nonan-2-yl)acetic acid]	6800	1.3	95	12900	3000	2.3	–	–	–	–	–	–	–
NCC1(CC(=O)O)C2CCC3CC2C1C3 (stereo not shown) [Example 6]	8210	2.4	83.2	13700	3710	1.4	–	–	–	–	–	–	–
NC[C@@]1(CC(=O)O)[C@@H]2C[C@@H]3CC[C@H]1[C@H]2C3 (racemic) [Example 2, (±)-2-((1R,2R,3S,6R,8R)-2-(aminomethyl)tricyclo[4.2.1.0^3,8]nonan-2-yl)acetic acid benzenesulfonic acid (1:1)]	–	–	–	–	–	–	8147	1.40	83.0	13473	3789	1.40	–
NC[C@@]1(CC(=O)O)[C@@H]2C[C@H]3C[C@@H]2[C@@H]1C3 [Example 8, 2-(4-(aminomethyl)tricyclo[3.2.1.0^3,6]octan-4-yl)acetic acid benzenesulfonic acid (1:1)]	–	–	–	–	–	–	11788	1.20	107.9	25443	8004	2.10	–
NC[C@@]1(CC(=O)O)[C@@H]2C[C@H]3C[C@@H]2[C@@H]1C3 [Example 7, 2-(4-(aminomethyl)tricyclo[3.2.1.0^3,6]octan-4-yl)acetic acid]	11800	1.2	97	23000	9140	1.1	–	–	–	–	–	–	–
NC[C@@]1(CC(=O)O)C2CC[C@H]3C[C@@H]2[C@@H]1C3 (single isomer, unassigned) [Example 5]	8210	2.4	87	14200	4490	1.6	–	–	–	–	–	–	–
NCC1(CC(=O)O)CCCCC1 [gabapentin]	–	–	–	–	–	–	–	–	–	–	–	–	approximately 60%
